Earlier results, collected in patent US12569575B2, “Radiopaque particle compositions and uses thereof” (GUSTAVE ROUSSY TRANSFERT, priority 2021, dated 2026).
In brackets after ≈: the same amount, converted by molar mass. Counter-ions that a name gives are not always drawn. Like-named read-outs stand apart in the source and are kept apart here.

Details: for Solubility in DMSO: solvent DMSO

| SMILES | Solubility in DMSO [mg/mL] | other results |
| --- | --- | --- |
| Nc1ccn([C@@H]2O[C@H](CO)[C@@H](O)C2(F)F)c(=O)n1 [Gemcitabine] | 5 (≈ 19 mM) | Solubility in Water (solvent water): 25 mg/mL (≈ 95 mM) |
| Cc1ccc(NC(=O)c2ccc(CN3CCN(C)CC3)cc2)cc1Nc1nc(-c2cccnc2)cs1 [Masitinib] | >95 | Solubility in Water (solvent water): <1.2 mg/mL |
| CNC(=O)c1ccccc1Sc1ccc2c(/C=C/c3ccccn3)n[nH]c2c1 [Axitinib] | 77 (≈ 199 mM) | – |
| COc1cc(Nc2c(C#N)cnc3cc(OCCCN4CCN(C)CC4)c(OC)cc23)c(Cl)cc1Cl [Bosutinib] | 100 (≈ 189 mM) | – |
| Cc1cn(-c2cc(NC(=O)c3ccc(C)c(Nc4nccc(-c5cccnc5)n4)c3)cc(C(F)(F)F)c2)cn1 [Nilotinib] | 50 (≈ 94.4 mM) | – |
| COc1cccc2c1C(=O)c1c(O)c3c(c(O)c1C2=O)C[C@@](O)(C(=O)CO)C[C@@H]3O[C@H]1C[C@H](N)[C@@H](O)[C@H](C)O1 [Epirubicin HCl] | 10 | Solubility in Water (solvent water): 10 mg/mL |
| COc1cccc2c1C(=O)c1c(O)c3c(c(O)c1C2=O)C[C@@](O)(C(=O)CO)C[C@@H]3O[C@H]1C[C@H](N)[C@H](O)[C@H](C)O1 [Doxorubicin HCl] | 100 | – |
| Cc1ccc(Nc2nccc(N(C)c3ccc4c(C)n(C)nc4c3)n2)cc1S(N)(=O)=O [Pazopanib] | 95 (≈ 217 mM) | – |
| COc1cc2c(Nc3ccc(Br)cc3F)ncnc2cc1OCC1CCN(C)CC1 [Vandetanib] | 30 (≈ 63.1 mM) | Solubility in Water (in pH 6.5): 5 mg/mL (≈ 10.5 mM) |
| COc1cc2nc(N3CCN(C(=O)C4CCCO4)CC3)nc(N)c2cc1OC (centres unmarked) [Terazosin] | – | Solubility in Water (solvent water): 20 mg/mL (≈ 51.6 mM) |
| CNC(=O)c1cc(Oc2ccc(NC(=O)Nc3ccc(Cl)c(C(F)(F)F)c3)cc2)ccn1 [Sorafenib] | 92 (≈ 198 mM) | – |
| CN1CCN(c2ccc3nc(-c4c(N)c5c(F)cccc5[nH]c4=O)[nH]c3c2)CC1 [Dovitinib] | 40 (≈ 102 mM) | – |
| Cc1nc(Nc2ncc(C(=O)Nc3c(C)cccc3Cl)s2)cc(N2CCN(CCO)CC2)n1 [Dasatinib] | 98 (≈ 201 mM) | – |
| CCN(CC)CCNC(=O)c1c(C)[nH]c(/C=C2\C(=O)Nc3ccc(F)cc32)c1C [Sunitinib] | 100 (≈ 251 mM) | Solubility in Water (in citrate buffer): 2 mg/mL (≈ 5.02 mM) |
| C#Cc1cccc(Nc2ncnc3cc(OCCOC)c(OCCOC)cc23)c1 [Erlotinib HCl] | 20 | – |
| Clc1ccc(Nc2nnc(Cc3ccncc3)c3ccccc23)cc1 [Vatalanib diHCl] | 85 | Solubility in Water (solvent water): 10 mg/mL |
| CS(=O)(=O)CCNCc1ccc(-c2ccc3ncnc(Nc4ccc(OCc5cccc(F)c5)c(Cl)c4)c3c2)o1.Cc1ccc(S(=O)(=O)O)cc1.Cc1ccc(S(=O)(=O)O)cc1 [Lapatinib toluene-sulfonate] | 200 | – |
| COc1cc2ncnc(Nc3ccc(F)c(Cl)c3)c2cc1OCCCN1CCOCC1 [Gefitinib] | 20 (≈ 44.8 mM) | – |
| COc1cc2nccc(Oc3ccc(NC(=O)NC4CC4)c(Cl)c3)c2cc1C(N)=O [Levatinib mesylate] | 9 | – |
| C[C@]12O[C@H](C[C@]1(O)CO)n1c3ccccc3c3c4c(c5c6ccccc6n2c5c31)CNC4=O [Lestaurtinib] | 44 (≈ 100 mM) | – |
| CNC(=O)c1cc(Oc2ccc(NC(=O)Nc3ccc(Cl)c(C(F)(F)F)c3)c(F)c2)ccn1 [Regorafenib] | 97 (≈ 201 mM) | – |
| COc1cc2nccc(Oc3ccc(NC(=O)C4(C(=O)Nc5ccc(F)cc5)CC4)cc3)c2cc1OC [Cabozantinib malate] | 18 | – |
| CC(=O)[C@]1(O)Cc2c(O)c3c(c(O)c2[C@@H](O[C@H]2C[C@H](N)[C@H](O)[C@H](C)O2)C1)C(=O)c1ccccc1C3=O [Idarubicin HCl] | 10 | Solubility in Water (solvent water): 1 mg/mL |
| C=CC(=O)Nc1cc2c(Nc3ccc(F)c(Cl)c3)ncnc2cc1OCCCN1CCOCC1 [Canertinib diHCl] | >5.6 | Solubility in Water (solvent water): 10 mg/mL |
